In brackets after ≈: the same amount, converted by molar mass.
Legend:
[1] = test system: human SK-OV-3 ovarian cancer cells; assay: Cellular Activity Assay (cytotoxicity, crystal violet); assay type: cell-based; settings: SK-OV-3 cells, 48 hr treatment
Text: (§1) To test the activity of compounds, two complimentary assays were used as described below. The Biochemical PRX3 Inhibition Assay tests the ability of each compound to crosslink PRX3 in a simple, in vitro system. In the Cellular Activity Assay, we are testing the ability of compounds to kill SK-OV-3 ovarian cancer cells.
The Cellular Activity Assay measures the EC50 of each compound in human SK-OV-3 ovarian cancer cells TS to be taken into the cell, transported to the mitochondria, and crosslink PRX3.
The cytotoxicity of compounds was measured as described in Nelson et al. (2021) Antioxidants (Basel) 10, 150; Cunniff et al. (2015) PloS one 10, e0127310; and Newick et al. (2012) PloS one 7, e39404. SK-OV-3 is an adherent, epithelial, adenocarcenoma cell line obtained from ATCC (ref #: HTB-77). SK-OV-3 cells are resistant to the commonly used chemotherapeutics, cis-platinum and doxorubicin. For this PRX3 crosslinking assay, SK-OV-3 cells were plated in a 96-well plate. After 24 h recovery, the cells were treated for 48 hr with multiple concentrations of each compound ranging from 0.1-100 μM.
Cells were washed with PBS to remove dead cells and the remaining live cells were fixed with 3.0% formaldehyde and stained with 0.1% crystal violet. The amount of crystal violet was determined by reading the absorbance at 540 nm (crystal violet dye dissolved in 100% methanol) using a plate reader. The signal for crystal violet dye is proportional to the biomass of remaining live cells. GraphPad Prism9 software was used to calculate the effective inhibitory concentration (EC50) of test compounds. Results for each compound, are normalized to the amount of cells in control wells treated with the equivalent concentration of DMSO (negative control). TS or Compound B were included in each set of assays as a positive control.

[2] = biological target: T1, purified human PRX3 (Homo sapiens, UniProt P30048); assay: Biochemical PRX3 Inhibition Assay (crosslink by SDS-PAGE, mono-adduct by MALDI-TOF MS); settings: 1-2 hr at 37° C.
T1 construct: made in house
T1 sequence (P30048 62-256): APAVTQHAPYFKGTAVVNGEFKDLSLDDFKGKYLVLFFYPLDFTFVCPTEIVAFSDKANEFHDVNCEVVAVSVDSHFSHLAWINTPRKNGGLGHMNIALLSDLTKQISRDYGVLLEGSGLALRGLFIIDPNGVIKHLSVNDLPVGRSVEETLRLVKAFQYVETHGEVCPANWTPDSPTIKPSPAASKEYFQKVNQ
Description: as §1
This assay tests the ability of each compound to form a covalent adduct with PRX3. The assay is performed as described in Nelson et al. (2021) Antioxidants (Basel) 10, 150; and Cunniff et al. (2015) PloS one 10, e0127310, and follows the appearance of non-reducible PRX3 crosslinks by SDS PAGE gel electrophoresis and follows the appearance of single PRX3 adducts by mass spectrometry. For this assay, purified human PRX3, hydrogen peroxide (the PRX3 substrate) and all the components required to enable PRX3 to catalytically cycle (thioredoxin-thioredoxin reductase-NAPDH system) are included (details below).
The biochemical PRX3 Inhibition assay contains 100 µM PRX3, 50 µM human TRX2, […] mouse thioredoxin reductase, and a NADPH regenerating system composed of 3.2 mM glucose 6-phosphate, 3.2 U/ml glucose 6-phosphate dehydrogenase and 0.4 mM NADPH. Samples are incubated for 1-2 hr at 37° C. with either 0.2 mM TS (positive control), compounds or an equivalent volume of DMSO (negative control). During this incubation, hydrogen peroxide is added to induce turnover of PRX3. Reactions are stopped by the addition of a buffer containing 100 mM dithiolthreitol (to break disulfide bonds) and SDS (detergent to denature proteins). NADPH, Glucose 6-Phosphate, and glucose 6-phosphate dehydrogenase were purchased from Sigma Aldrich. PRX3, thioredoxin, and thioredoxin reductase were all purified to >98% purity in the Lowther laboratory according to protocols referenced in Nelson et al. (2021) Antioxidants (Basel) 10, 150; and Cunniff et al. (2015) PloS one 10, e0127310.
To measure the amount of PRX3 crosslink, proteins in the reaction were separated by SDS-polyacrlyamide gel electrophoresis and stained for total protein using GelCode Blue (Life Technologies). The amount of unmodified PRX3 and TS-PRX3 crosslink was measured by densiometric analysis of the signal for the PRX3 band running at the MW of a PRX3 crosslink (−46 kDa) compared to the PRX3 signal at the MW of the un-modified PRX3 (˜23 kD).
To measure covalent adduct formation on a single PRX3 monomer, each reaction was exchanged into a mass spectrometry compatible buffer containing 40 mM ammonium citrate, pH 8.3 made in HPLC water. Sample was mixed 1:1 with a matrix solution containing 30 mg/mL sinapinic acid in 70% (vol/vol) acetonitrile, 0.2% formic acid and spotted to onto the sample plate. PRX3 mass was measured by MALDI-TOF MS analysis on a Bruker Daltonics MALDI-TOF MS spectrometer. Spectra were analyzed in FLEXAnalysis Software. The intensity of the reduced PRX3 peak (SH) and intensity of the analog adduct peak was determined and corrected for background signal at the adduct peak in the DMSO control. The fraction of single analog adduct in the monomer peak was determined by dividing the intensity of the adduct peak by the summed intensity of the SH and adduct peaks.

[3] = Solubility Assay; assay type: physicochemical; settings: 100 mM NaCl buffer, aqueous with cosolvent or surfactant or cyclodextrin, kinetic from dmso stock, 20 mM HEPES, pH 7.5, 18-24 hours at ambient temperature, read-out: Solubility
Description: A 20 mM stock solution was made for each compound in DMSO. To measure solubility, 0.03-0.05 mL of the stock was added to 0.27 mL 20 mM HEPES, 100 mM NaCl, pH 7.5. The solution was mixed and rotated 18-24 hours at ambient temperature. The next day, solutions were centrifuged for 10 min at 20,000×g at 24° C. to remove insoluble, solid material. Next, 100 μL of the supernatant containing the soluble compound was added to 900 μL DMSO and High Performance Liquid Chromatography was performed as described in Table 1 and either HPLC gradient 1 (Table 2) for HPLC gradient 2 (Table 3). For each analog, a 200 μM standard and a 20 μM standard were prepared and run in parallel (standards were dissolved completely in 100% DMSO). The amount of compound in the experimental sample was calculated by comparing the area under the curve for compound peak to the area for the closest standard and correcting for dilution.

[4] = test system: Enterococcus hirae (ATCC #10541); assay: Antimicrobial Activity Assay; assay type: cell-based; settings: Enterococcus hirae, minimal inhibitory concentration; for MIC: ATCC10541, read-out: Antimicrobial Activity
Description: The overnight growth was then diluted into growth media to make a single solution of E. hirae with a final optical density at 600 nm=0.02 AU. A 20 mM stock solution of Thiostrepton in DMSO was made and used to make multiple dilutions of TS in DMSO. Each TS dilution (0.1 mL) was then added to a test tube containing 10 mL of the diluted E. hirae and grown at 37° C. overnight while shaking at 180 rpm. The next morning, each tube was visually inspected to determine if the cells grew. Final concentrations tested were 0.120, 0.090, 0.075, 0.060, 0.045, 0.030, and 0.015 μM TS. […] Three replicates were made on three separate days (n=9). […] For TS analogs, the dilute E. hirae was treated with 20 µM final concentration of each analog (three replicates each). […] DMSO was used as a positive control (complete cell growth) and 20 µM thiostrepton was used as a negative control.

| SMILES | EC50 [1] [µM] | PRX3 Inhibition (Crosslink + Mono-adduct) [2] | solubility [3] [µM] | MIC [4] [µM] | Antimicrobial Activity [4] |
| --- | --- | --- | --- | --- | --- |
| C=C(NC(=O)c1csc(N2CCC(NC(=O)OC(C)(C)C)CC2)n1)C(=O)NC(=C)C(=O)N1CCCCC1 [Compound 1, Tert-butyl (1-(4-((3-oxo-3-((3-oxo-3-(piperidin-1-yl)prop-1-en-2-yl)amino)prop-1-en-2-yl)carbamoyl)thiazol-2-yl)piperidin-4-yl)carbamate] | 10 to 25 | +++ (>90%) | < 100 | > 20 | – |
| C=C(NC(=O)c1csc(N2CCC(NC(=O)OC(C)(C)C)CC2)n1)C(=O)NC(=C)C(=O)OCc1ccccc1 [Compound 2, Benzyl 2-(2-(2-(4-((tert-butoxycarbonyl)amino)piperidin-1-yl)thiazole-4-carboxamido)acrylamido)acrylate] | 1 to 10 | ++ (50-90%) | < 100 | > 20 | – |
| C=C(NC(=O)c1csc(N2CCC(NC(=O)OC(C)(C)C)CC2)n1)C(=O)NC(=C)C(=O)OCCOC [Compound 3, 2-Methoxyethyl 2-(2-(2-(4-((tert-butoxycarbonyl)amino)piperidin-1-yl)thiazole-4-carboxamido)acrylamido)acrylate] | 10 to 25 | +++ (>90%) | 100 to 1000 (≈ 52.4 to 524 µg/mL) | > 20 | – |
| C=C(NC(=O)C(=C)NC(=O)c1csc(N2CCC(NC(=O)OC(C)(C)C)CC2)n1)C(=O)NCCOC [Compound 4, Tert-butyl (1-(4-((3-((3-((2-methoxyethyl)amino)-3-oxoprop-1-en-2-yl)amino)-3-oxoprop-1-en-2-yl)carbamoyl)thiazol-2-yl)piperidin-4-yl)carbamate] | 10 to 25 | +++ (>90%) | 100 to 1000 (≈ 52.3 to 523 µg/mL) | > 20 | – |
| C=C(NC(=O)c1csc(N2CCC(NC(=O)OC(C)(C)C)CC2)n1)C(=O)NC(=C)C(=O)OC1CCOCC1 [Compound 5, Tetrahydro-2H-pyran-4-yl 2-(2-(2-(4-((tert-butoxycarbonyl)amino)piperidin-1-yl)thiazole-4-carboxamido)acrylamido)acrylate] | 1 to 10 | +++ (>90%) | < 100 | > 20 | – |
| C=C(NC(=O)c1csc(N2CCC(NC(=O)OC(C)(C)C)CC2)n1)C(=O)NC(=C)C(=O)OCC1CCOCC1 [Compound 6, (Tetrahydro-2H-pyran-4-yl)methyl 2-(2-(2-(4-((tert-butoxycarbonyl)amino)piperidin-1-yl)thiazole-4-carboxamido)acrylamido)acrylate] | 1 to 10 | +++ (>90%) | < 100 | > 20 | – |
| C=C(NC(=O)c1csc(N2CCC(NC(=O)OC(C)(C)C)CC2)n1)C(=O)NC(=C)C(=O)N(C)CCOC [Compound 7, Tert-butyl (1-(4-((3-((3-((2-methoxyethyl)(methyl)amino)-3-oxoprop-1-en-2-yl)amino)-3-oxoprop-1-en-2-yl)carbamoyl)thiazol-2-yl)piperidin-4-yl)carbamate] | 25 to 100 | +++ (>90%) | 100 to 1000 (≈ 53.7 to 537 µg/mL) | > 20 | – |
| C=C(NC(=O)c1csc(N2CCC(NC(=O)OC(C)(C)C)CC2)n1)C(=O)NC(=C)c1nnc(C2CCOCC2)o1 [Compound 8, Tert-butyl (1-(4-((3-oxo-3-((1-(5-(tetrahydro-2H-pyran-4-yl)-1,3,4-oxadiazol-2-yl)vinyl)amino)prop-1-en-2-yl)carbamoyl)thiazol-2-yl)piperidin-4-yl)carbamate] | 10 to 25 | +++ (>90%) | < 100 | > 20 | – |
| C=C(NC(=O)c1csc(N2CCC(NC(=O)OC(C)(C)C)CC2)n1)C(=O)NC(=C)C(=O)OC [Compound A, Methyl 2-(2-(2-(4-((tert-butoxycarbonyl)amino)piperidin-1-yl)thiazole-4-carboxamido)acrylamido)acrylate, reference compound] | – | – | < 100 | – | − (>20 μM) |
| C=C(NC(=O)c1csc(-c2ccc(NC(=O)CCCCCBr)cc2)n1)C(=O)NC(=C)C(=O)OC [Compound B, Methyl 2-(2-(2-(4-(6-bromohexanamido)phenyl)thiazole-4-carboxamido)acrylamido)acrylate, reference compound] | – | – | < 100 | – | – |

Source: patent US20260109695A1, “PEROXIREDOXIN 3 INHIBITORS AND METHODS OF USE FOR TREATING CANCER” (WAKE FOREST UNIVERSITY HEALTH SCIENCES, priority 2022, published 2026)
